Measurements from PMC9706920, “Aryloxypropanolamine targets amyloid aggregates and reverses Alzheimer-like phenotypes in Alzheimer mouse models” (Alzheimer's Research & Therapy, 2022).

How the values were obtained:
5XFAD mice = test: Western blot of brain lysates of 5XFAD mice; format: in vivo, mouse; conditions: 50 mg/kg/day, 5 weeks
Procedure: To test the in vivo efficacy of YIAD001 and YIAD002, female 5XFAD mice (n = 25) and female wildtype mice (n = 7) were assessed at the age of 4.5 months. YIAD compounds were dissolved in DMSO and diluted in drinking water to a final concentration of 50 mg/kg/day (5% DMSO, 5% Tween) for oral administration. The three compounds, YIAD001, YIAD002, and YIAD003, were freely administered via drinking water to 4.5-month-old 5XFAD mice (n = 6 for each group) for 5 weeks. As a control, 5% DMSO, 5% Tween in drinking water was provided ad libitum to littermate 5XFAD mice (n = 7) and wildtype mice (n = 7) for 5 weeks.
After the administration period, the mice were deeply anaesthetized with 4% avertin through intraperitoneal injection and transcardially perfused with 0.9% saline. Subsequently, the mice were sacrificed for brain excision. Each collected brain was divided through the mid-sagittal section; the hippocampal and cortical regions were dissected from one half and stored at −80°C for subsequent brain lysates, while the other half was immersed in 4% paraformaldehyde (pH 7.4) for 24 h and 30% sucrose for 48 h at 4°C and subsequently deep-froze at −80°C for immunohistochemistry.
Isolated cortical and hippocampal tissue samples were homogenized in ice-cold RIPA buffer with protease inhibitor cocktail and phosphatase inhibitor cocktail. Lysed tissues were incubated in ice for 30 min and subsequently centrifuged at 14,000 rpm at 4°C for 30 min. The supernatants of the brain lysates were collected and soluble protein concentrations were quantified with the Pierce BCA protein assay kit (Thermo Fisher Scientific, USA).
Western blot analysis was performed to assess YIAD002-induced alterations of protein biomarkers in 5XFAD mice brain lysates. Twenty micrograms of lysate samples were loaded onto 12% tris-tricine gels, separated by SDS-PAGE, and transferred to nitrocellulose membranes. Membranes were blocked by 5% skim milk or 5% BSA in TBS-T. The following primary antibodies were used for immunoblotting: anti-6E10 for APP (1:1000, Biolegend 803003), anti-AT8 (1:1000, Invitrogen MN1020), anti-Tau (1:1000, Santa Cruz SC390476), anti-ionized calcium-binding adapter molecule (Iba1) (1:1000, CST, 17198S), anti-glial fibrillar acidic protein (GFAP) (1:2000, Milipore AB5541), anti-postsynaptic density protein 95 (PSD95) (1:1000, CST 3450S), anti-synaptophysin (1:1000, Milipore MAB5258), and anti-β-Actin (1:10,000, Milipore MAB1501). Membranes were incubated with primary antibodies at 4°C overnight and probed with HRP-conjugated IgG antibodies (1:10,000) in RT for an hour. Proteins were detected using an ECL kit (Thermo Fisher Scientific, USA). Membranes were washed with TBS-T in between steps, three times for 10 min.

Aβ(1–42) aggregates [1] = molecular target: T1, Aβ(1–42) aggregates (Homo sapiens, UniProt P05067); test: ThT fluorescence Aβ(1–42) disaggregation assay; format: biochemical; conditions: for Decrease of fibrillar Aβ(1–42) aggregates (ThT fluorescence): Aβ(1–42) 25 μM pre-aggregated 37°C 3 days, compound added for additional 3 days, concentration of the printed value not stated; for EC50: pre-aggregated Aβ(1–42) 25 μM, 3 + 3 days, 37°C
T1 construct: made in house; host or cells: chemical synthesis (Fmoc solid phase peptide synthesis)
Procedure: (§1) ThT fluorescence was used to assess the in vitro inhibition of Aβ(1–42) and disaggregation of Aβ(1–42), Aβ(1–40), Aβ(pE3-42), recombinant tau K18, and tau repeats R1, R2, R3, R4 by YIAD compounds. In house synthetic Aβ(1–42) was dissolved in DMSO (1 mM, 100% DMSO) and diluted to 20-fold in deionized water to make 50 μM Aβ(1–42) stocks (5% DMSO). YIAD compounds were first dissolved in DMSO (100 mM, 100% DMSO) and serially diluted with deionized water to make YIAD stocks with concentrations of 1, 10, 100, and 1000 μM (10% DMSO). For the Aβ(1–42) inhibition assay, monomeric Aβ(1–42) stocks and YIAD stocks were co-incubated at 37°C for 3 days. For Aβ(1–42) disaggregation assay, monomeric Aβ(1–42) stocks were preincubated at 37°C for three days to form Aβ(1–42) aggregates, and subsequently, YIAD stocks were added for an additional 3 days. For Aβ(1-40) disaggregation assays, Aβ(1–40) (50 μM, 5% DMSO) was preincubated at 37°C for 3 days to induce aggregation, and co-incubated with YIAD001 and YIAD002 for an additional 3 days. For Aβ(pE3-42) disaggregation assays, in house synthetic Aβ(pE3-42) (50 μM, 5% DMSO) was preincubated at 37°C for 1 day and co-incubated with YIAD002 for an additional 3 days. For tau K18 disaggregation assay, recombinant tau K18 fragments (35 μM) were dissolved in PBS with 0.1 mg/mL of heparin and 100 μM of DTT, then pre-aggregated at 37°C for 3 days. Then, YIAD stocks were added to aggregated K18 fragments for an additional 3 days. For tau repeat disaggregation assays, tau repeats (R1, R2, R3, R4) (35 μM) were dissolved in PBS with 0.1 mg/mL of heparin and 100 μM of DTT, then pre-aggregated at 37°C for 1 day. Then, YIAD002 was added to aggregated repeats for an additional 3 days. Prior to fluorescence intensity measurement, ThT solution (5 μM) was prepared by dissolving ThT, purchased from Sigma-Aldrich (MO, USA) in 50 mM glycine buffer (pH 8.5). To quantify the effect of inhibition and disaggregation, 25 μL of all samples and 75 μL of ThT solution were loaded into a half-area 96-well black plate in triplicate.

Aβ(1–42) aggregates [2] = molecular target: T1, Aβ(1–42) aggregates; test: In vitro dot blot assay with oligomer-specific antibody A11; format: biochemical; conditions: Aβ(1–42) disaggregation samples, Fig. S1
Procedure: To analyze total and oligomeric amyloid levels, protein samples (12 μg in 2 μL) and prepared in vitro disaggregation assay samples (2 μL) were directly blotted on nitrocellulose membranes. After blocking with 5% skim milk in TBS-T, the membranes were probed with anti-6E10 antibody (1:1,000, Biolegend 803003) and anti-A11 antibody (1:2000, Invitrogen AHB0052) at 4°C overnight. HRP-conjugated goat anti-mouse antibody (1:10,000, Bethyl Laboratories A90-116P) and anti-rabbit secondary antibody (1:10,000, Bethyl Laboratories A120-101P) were used for 6E10 and A11, respectively. Proteins were detected using an ECL kit (Thermo Fisher Scientific, USA). Membranes were washed with TBS-T in between steps, three times for 10 min.

Aβ(1–40) aggregates = molecular target: T2, Aβ(1–40) aggregates (Homo sapiens, UniProt P05067); test: ThT fluorescence Aβ(1–40) disaggregation assay; format: biochemical; conditions: 500 μM compound, Aβ(1–40) 25 μM pre-aggregated 3 days, co-incubated additional 3 days
T2 construct: Aβ(1–40), […]; […]; made in house; host or cells: chemical synthesis (Fmoc solid phase peptide synthesis)
Procedure: as §1, with “For Aβ(pE3-42) disaggregation assays, in house synthetic Aβ(pE3-42) (50 μM, 5% DMSO) was preincubated at 37°C for 1 day and co-incubated with YIAD002 for an additional 3 days. For tau K18 disaggregation assay, recombinant tau K18 fragments (35 μM) were dissolved in PBS with 0.1 mg/mL of heparin and 100 μM of DTT, then pre-aggregated at 37°C for 3 days. Then, YIAD stocks were added to aggregated K18 fragments for an additional 3 days. For tau repeat disaggregation assays, tau repeats (R1, R2, R3, R4) (35 μM) were dissolved in PBS with 0.1 mg/mL of heparin and 100 μM of DTT, then pre-aggregated at 37°C for 1 day. Then, YIAD002 was added to aggregated repeats for an additional 3 days.” left out

T1 sequence (P05067 672-713 limits assumed): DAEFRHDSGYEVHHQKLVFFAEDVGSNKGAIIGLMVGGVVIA
T2 sequence (P05067 672-711): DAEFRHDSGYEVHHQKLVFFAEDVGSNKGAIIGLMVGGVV

CCC(C)(C)c1ccc(OCC(O)CN2CCCC2)c(C(C)(C)CC)c1.Cl (stereo not drawn) [YIAD002, 1-(3-(2,4-Di-tert-pentylphenoxy)-2-hydroxypropyl)pyrrolidin-1-ium chloride]
Cortical and hippocampal APP levels (5XFAD mice): did not induce significant shift | Reduction of GFAP expression (5XFAD mice; cortical lysates, vs vehicle): 32.76% | Cortical total tau levels (5XFAD mice; vs vehicle): not affected | Increase of cortical PSD95 levels (5XFAD mice; vs vehicle): 51.97% | Increase of cortical synaptophysin levels (5XFAD mice; vs vehicle): 57.47% | Reduction of cortical Iba1 levels (5XFAD mice; vs vehicle): 32.11% | Reduction of cortical phosphorylated tau (AT8) (5XFAD mice; vs vehicle): 35.29% | Decrease of fibrillar Aβ(1–42) aggregates (ThT fluorescence) (Aβ(1–42) aggregates [1]): 99.94% | EC50 (Aβ(1–42) aggregates [1]): 16.9 µM | A11-detected amyloid oligomers, in vitro disaggregation (Aβ(1–42) aggregates [2]): dissociate Aβ(1–42) aggregates | Decrease of Aβ(1–40) aggregates (ThT fluorescence) (Aβ(1–40) aggregates): 83.35%

CCC(C)(C)c1ccc(OCC(O)CN2CCOCC2)c(C(C)(C)CC)c1.Cl (stereo not drawn) [YIAD001, 4-(3-(2,4-Di-tert-pentylphenoxy)-2-hydroxypropyl)morpholin-4-ium chloride]
Cortical and hippocampal APP levels (5XFAD mice): did not induce significant shift | Cortical total tau levels (5XFAD mice; vs vehicle): not affected | Increase of cortical PSD95 levels (5XFAD mice; vs vehicle): 44.59% | Increase of cortical synaptophysin levels (5XFAD mice; vs vehicle): 38.68% | Reduction of cortical Iba1 levels (5XFAD mice; vs vehicle): 26.08% | Reduction of cortical phosphorylated tau (AT8) (5XFAD mice; vs vehicle): did not affect | Decrease of fibrillar Aβ(1–42) aggregates (ThT fluorescence) (Aβ(1–42) aggregates [1]): 82.61% | EC50 (Aβ(1–42) aggregates [1]): 91.8 µM | A11-detected amyloid oligomers, in vitro disaggregation (Aβ(1–42) aggregates [2]): dissociate Aβ(1–42) aggregates | Decrease of Aβ(1–40) aggregates (ThT fluorescence) (Aβ(1–40) aggregates): 58.98%
